What follows are compounds tested against T1, 3-keto-steroid reductase/17-beta-hydroxysteroid dehydrogenase 7 (Homo sapiens) (UniProt P56937). Conditions: HEK293, at 0.3 µM.
T1 sequence (whole entry): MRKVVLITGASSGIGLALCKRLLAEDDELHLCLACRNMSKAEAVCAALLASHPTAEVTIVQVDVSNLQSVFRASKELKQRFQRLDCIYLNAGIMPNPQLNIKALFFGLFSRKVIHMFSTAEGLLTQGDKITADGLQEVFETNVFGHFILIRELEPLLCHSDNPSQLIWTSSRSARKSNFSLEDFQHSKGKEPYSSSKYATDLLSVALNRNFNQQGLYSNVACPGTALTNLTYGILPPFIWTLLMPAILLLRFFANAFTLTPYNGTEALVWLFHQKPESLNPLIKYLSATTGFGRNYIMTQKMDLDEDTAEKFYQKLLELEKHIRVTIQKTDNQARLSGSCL
Description: Inhibition of human 17beta-HSD7 expressed in HEK293 cells assessed as inhibition of reduction of [14C]estrone into [14C]estradiol at 0.3 uM after 7 hrs

Row | Structure (SMILES) | inhibition [%]
1 | CCCCCCCCCCCCN(C(=O)c1cccc(CCl)c1)[C@H]1CC[C@H]2[C@@H]3CC[C@H]4N(C)C(=O)CC[C@]4(C)[C@H]3CC[C@]12C | 45
2 | CCCCCCCCCCN(C(=O)c1cccc(CCl)c1)[C@H]1CC[C@H]2[C@@H]3CC[C@H]4N(C)C(=O)CC[C@]4(C)[C@H]3CC[C@]12C | 30
3 | CCCCCCCN(C(=O)c1cc(F)cc(F)c1)[C@H]1CC[C@H]2[C@@H]3CC[C@H]4N(C)C(=O)CC[C@]4(C)[C@H]3CC[C@]12C | 56
4 | CCCCCCCCCCN(C(=O)c1ccc(Br)cc1)[C@H]1CC[C@H]2[C@@H]3CC[C@H]4N(C)C(=O)CC[C@]4(C)[C@H]3CC[C@]12C | 52
5 | CCCCCCCN(C(=O)c1cccc(CCl)c1)[C@H]1CC[C@H]2[C@@H]3CC[C@H]4N(C)C(=O)CC[C@]4(C)[C@H]3CC[C@]12C | 24
6 | CCCCCCCN(C(=O)c1ccccc1Cl)[C@H]1CC[C@H]2[C@@H]3CC[C@H]4N(C)C(=O)CC[C@]4(C)[C@H]3CC[C@]12C | 37
7 | CCCCCCCN(Cc1ccccc1)[C@H]1CC[C@H]2[C@@H]3CC[C@H]4N(C)C(=O)CC[C@]4(C)[C@H]3CC[C@]12C | 69
8 | CCCCCCCCCCN(C(=O)c1cc(F)cc(F)c1)[C@H]1CC[C@H]2[C@@H]3CC[C@H]4N(C)C(=O)CC[C@]4(C)[C@H]3CC[C@]12C | 38
9 | CCCCCCCCCCN(C(=O)c1c(F)cccc1C(F)(F)F)[C@H]1CC[C@H]2[C@@H]3CC[C@H]4N(C)C(=O)CC[C@]4(C)[C@H]3CC[C@]12C | 19
10 | CCCCCCCCCCN(C(=O)c1ccc(OC)c(C(F)(F)F)c1)[C@H]1CC[C@H]2[C@@H]3CC[C@H]4N(C)C(=O)CC[C@]4(C)[C@H]3CC[C@]12C | 46
11 | CCCCCCCN(C(=O)c1ccc(I)cc1)[C@H]1CC[C@H]2[C@@H]3CC[C@H]4N(C)C(=O)CC[C@]4(C)[C@H]3CC[C@]12C | 60
12 | CCCCCCCCCCN(C(=O)c1ccc(F)cc1)[C@H]1CC[C@H]2[C@@H]3CC[C@H]4N(C)C(=O)CC[C@]4(C)[C@H]3CC[C@]12C | 71
13 | CCCCCCCCCCN(C(=O)c1ccc(F)cc1F)[C@H]1CC[C@H]2[C@@H]3CC[C@H]4N(C)C(=O)CC[C@]4(C)[C@H]3CC[C@]12C | 80
14 | CCCCCCCCCCN(C(=O)c1cc(F)ccc1F)[C@H]1CC[C@H]2[C@@H]3CC[C@H]4N(C)C(=O)CC[C@]4(C)[C@H]3CC[C@]12C | 56
15 | CCCCCCCCCCN(C(=O)c1ccc(CCCCCCC)cc1)[C@H]1CC[C@H]2[C@@H]3CC[C@H]4N(C)C(=O)CC[C@]4(C)[C@H]3CC[C@]12C | 11
16 | CCCCCCCCCCN(C(=O)c1c(Cl)cccc1Cl)[C@H]1CC[C@H]2[C@@H]3CC[C@H]4N(C)C(=O)CC[C@]4(C)[C@H]3CC[C@]12C | 36
17 | CCCCCCCCCCN(C(=O)c1ccc(C#N)cc1)[C@H]1CC[C@H]2[C@@H]3CC[C@H]4N(C)C(=O)CC[C@]4(C)[C@H]3CC[C@]12C | 49
18 | CCCCCCCCCCN(C(=O)c1ccc(I)cc1)[C@H]1CC[C@H]2[C@@H]3CC[C@H]4N(C)C(=O)CC[C@]4(C)[C@H]3CC[C@]12C | 39
19 | CCCCCCCN(C(=O)c1c(Cl)cccc1Cl)[C@H]1CC[C@H]2[C@@H]3CC[C@H]4N(C)C(=O)CC[C@]4(C)[C@H]3CC[C@]12C | 28
20 | CCCCCCCCCCN(C(=O)c1ccccc1Cl)[C@H]1CC[C@H]2[C@@H]3CC[C@H]4N(C)C(=O)CC[C@]4(C)[C@H]3CC[C@]12C | 37
21 | CCCCCCCN(C(=O)C1CCCCC1)[C@H]1CC[C@H]2[C@@H]3CC[C@H]4N(C)C(=O)CC[C@]4(C)[C@H]3CC[C@]12C | 0
22 | CCCCCCCCCCCCN(C(=O)c1ccc(Br)cc1)[C@H]1CC[C@H]2[C@@H]3CC[C@H]4N(C)C(=O)CC[C@]4(C)[C@H]3CC[C@]12C | 52

Row | Structure (SMILES) | inhibition [%]
23 | CCCCCCCN(C(=O)c1c(F)cccc1C(F)(F)F)[C@H]1CC[C@H]2[C@@H]3CC[C@H]4N(C)C(=O)CC[C@]4(C)[C@H]3CC[C@]12C | 49
24 | CCCCCCCc1ccc(C(=O)N(CCCCCCC)[C@H]2CC[C@H]3[C@@H]4CC[C@H]5N(C)C(=O)CC[C@]5(C)[C@H]4CC[C@]23C)cc1 | 24
25 | CCCCCCCCCCCCN(C(=O)c1ccc(F)cc1)[C@H]1CC[C@H]2[C@@H]3CC[C@H]4N(C)C(=O)CC[C@]4(C)[C@H]3CC[C@]12C | 47
26 | CCCCCCCCCCCCN(C(=O)c1ccc(CCl)cc1)[C@H]1CC[C@H]2[C@@H]3CC[C@H]4N(C)C(=O)CC[C@]4(C)[C@H]3CC[C@]12C | 33
27 | CCCCCCCCCCCCN(C(=O)c1ccc(C#N)cc1)[C@H]1CC[C@H]2[C@@H]3CC[C@H]4N(C)C(=O)CC[C@]4(C)[C@H]3CC[C@]12C | 51
28 | CCCCCCCN(C(=O)c1ccc(OC)c(C(F)(F)F)c1)[C@H]1CC[C@H]2[C@@H]3CC[C@H]4N(C)C(=O)CC[C@]4(C)[C@H]3CC[C@]12C | 59
29 | CCCCCCCN(C(=O)c1ccccc1)[C@H]1CC[C@H]2[C@@H]3CC[C@H]4N(C)C(=O)CC[C@]4(C)[C@H]3CC[C@]12C | 56
30 | CCCCCN(C(=O)c1ccc(Br)cc1)[C@H]1CC[C@H]2[C@@H]3CC[C@H]4N(C)C(=O)CC[C@]4(C)[C@H]3CC[C@]12C | 63
31 | CCCCCCCN(CC1CCCCC1)[C@H]1CC[C@H]2[C@@H]3CC[C@H]4N(C)C(=O)CC[C@]4(C)[C@H]3CC[C@]12C | 45
32 | CCCCCCCCCCN(C(=O)c1ccc(CCl)cc1)[C@H]1CC[C@H]2[C@@H]3CC[C@H]4N(C)C(=O)CC[C@]4(C)[C@H]3CC[C@]12C | 37
33 | CCCCCCCN(C(=O)c1ccc(Cl)cc1)[C@H]1CC[C@H]2[C@@H]3CC[C@H]4N(C)C(=O)CC[C@]4(C)[C@H]3CC[C@]12C | 65
34 | CCCCCCCCCCN(C(=O)c1ccc(C(C)(C)C)cc1)[C@H]1CC[C@H]2[C@@H]3CC[C@H]4N(C)C(=O)CC[C@]4(C)[C@H]3CC[C@]12C | 4
35 | CCCCCCCN(C(=O)c1ccc(Br)cc1)[C@H]1CC[C@H]2[C@@H]3CC[C@H]4N(C)C(=O)CC[C@]4(C)[C@H]3CC[C@]12C | 68
36 | CCCCCCCN(C(=O)c1ccc(CCl)cc1)[C@H]1CC[C@H]2[C@@H]3CC[C@H]4N(C)C(=O)CC[C@]4(C)[C@H]3CC[C@]12C | 50
37 | CCCCCCCCCCCCN(C(=O)c1ccc(Cl)cc1)[C@H]1CC[C@H]2[C@@H]3CC[C@H]4N(C)C(=O)CC[C@]4(C)[C@H]3CC[C@]12C | 40
38 | CCCCCCCN(C(=O)c1ccc(C#N)cc1)[C@H]1CC[C@H]2[C@@H]3CC[C@H]4N(C)C(=O)CC[C@]4(C)[C@H]3CC[C@]12C | 56
39 | CCCCCCCCCCCCN(C(=O)c1ccccc1Cl)[C@H]1CC[C@H]2[C@@H]3CC[C@H]4N(C)C(=O)CC[C@]4(C)[C@H]3CC[C@]12C | 46
40 | CCCCCCCCCCN(C(=O)c1c(F)cccc1F)[C@H]1CC[C@H]2[C@@H]3CC[C@H]4N(C)C(=O)CC[C@]4(C)[C@H]3CC[C@]12C | 77
41 | CCCCCCCCCCCCN(C(=O)c1c(Cl)cccc1Cl)[C@H]1CC[C@H]2[C@@H]3CC[C@H]4N(C)C(=O)CC[C@]4(C)[C@H]3CC[C@]12C | 18
42 | CCCCCCCCCCCCN(C(=O)c1ccc(OC)c(C(F)(F)F)c1)[C@H]1CC[C@H]2[C@@H]3CC[C@H]4N(C)C(=O)CC[C@]4(C)[C@H]3CC[C@]12C | 51
43 | CCCCCCCN(C(=O)c1cc(F)ccc1F)[C@H]1CC[C@H]2[C@@H]3CC[C@H]4N(C)C(=O)CC[C@]4(C)[C@H]3CC[C@]12C | 59
44 | CCCCCCCN(C(=O)c1c(F)c(F)c(F)c(F)c1F)[C@H]1CC[C@H]2[C@@H]3CC[C@H]4N(C)C(=O)CC[C@]4(C)[C@H]3CC[C@]12C | 67
